We go through 2 compounds from patent US8084502B2, “Use of agmatine for protection of retinal ganglion cells” (priority 2007, dated 2011).

Where a SMILES comes first, the peptide text is derived from it. The star is where a group is joined. Cbz = O=C(OCc1ccccc1)*; CH2F = FC*

For one test, the system named is caspase-3. Description: Caspase-3 activity (colorimetric, Ac-DEVD-pNA cleavage) after hypoxia. The following applies: hypoxia 24 hours; 100 μM of agmatine or 50 μM of Z-VAD-FMK. Type of test: cell-based, rat. How it is done: The RGC-5 cell line, which is a RGC line developed from post-natal Sprague-Dawley rats, was grown in modified Dulbecco's Modified Eagle's Medium (DMEM; Gibco) supplemented with 10% of heat inactivated fetal bovine serum (Gibco) and 100 U/mL of penicillin and 100 μg/mL of streptomycin (Gibco). The cells were passaged every 2 to 3 days, and the cultures incubated at 37° C. in 5% of CO2 and air. […] For all experiments, cells were used at an 80% confluence. Cultures were transferred into a closed hypoxic chamber (Form a Scientific Co.) in which oxygen level (5% of O2, 5% of CO2, 90% of N2) and temperature (37° C.) were controlled. After washing twice with deoxygenated serum-free DMEM, cells were maintained in the hypoxic chamber. Control cells were not exposed to hypoxia. Agmatine or BDNF were added to the culture medium at the start of injury as indicated. Caspase-3 activity was measured using the CaspACE™ colorimetric assay system (Promega, Cat no. G7220) according to the manufacturer's instructions. Briefly, cells were harvested and resuspended in cell lysis buffer (10^8 cells/mL). […] After incubating at 37° C. for 4 hours, absorbance was measured using a microplate reader at 405 nm. Absorbance of each sample was determined by subtraction of the mean absorbance of the blank from that of each sample.

The next test relates to RGC-5. Description: LDH assay, TNF-α-induced cell death. It is filed as cell-based, rat. How it is done: The RGC-5 cell line, which is an RGC line developed from post-natal Sprague-Dawley rats, was grown in modified DMEM (Gibco) supplemented with 10% of heat inactivated fetal bovine serum (Gibco) and 100 U/mL of penicillin and 100 μg/mL of streptomycin (Gibco). The cells were passaged every 2 to 3 days and incubated at 37° C. in 5% of CO2 and air. At cultivation, the cells had the same morphology. For all experiments, cells were used at 80% of confluence.
After washing twice with PBS, cells were cultured in serum-free DMEM and treated with either 10 or 50 ng/mL of recombinant rat TNF-α (Chemicon) for up to 48 hours. The control cells were not exposed to TNF-α. 100 μM of agmatine was added to the culture medium at the start of injury as indicated.
Cell viability was quantified by measuring the amounts of LDH released from the injured cells after TNF-α administration. LDH release is expressed as a value relative to the value of 100, which is the maximum LDH release that occurs after freezing each culture at −70° C. overnight and then rapidly thawing, thus inducing nearly complete cell damage. All experiments were performed in at least quadruplicate, and repeated at least eight times using cell cultures derived from different platings.

For `COC(=O)C[C@H](NC(=O)[C@H](C)NC(=O)[C@@H](NC(=O)OCc1ccccc1)C(C)C)C(=O)CF` [Z-VAD-FMK, reference compound] (Cbz-Val-Ala-Asp(OMe)-CH2F), the “hypoxia-induced caspase-3 activity” value with caspase-3 is “equally suppressed”.

In the case of TNF-α, the LDH release in the test with RGC-5 (10 ng/mL of TNF-α alone, 24 hours) is 7.04±3.26%; with RGC-5 (10 ng/mL of TNF-α alone, 48 hours), 10.16±1.77%; with RGC-5 (50 ng/mL of TNF-α alone, 24 hours), 13.41±6.20%; in the test with RGC-5 (50 ng/mL of TNF-α alone, 48 hours), 17.00±1.92%.
